Assay results from patent US10653739B2, “Medicinal ambrosia maritima extracts” (priority 2015, dated 2020).

What was measured:
[1] = system: prostate cancer cell line; test: MTS IC50, prostate cancer cell line; assay type: cell-based; conditions: purified sub fractions of the organic extraction
From the text: (§1) MTS was used to evaluate IC50 (drug concentration causing 50% inhibition of the desired activity) for SLs on various bladder, prostate, breast, lung and pancreatic cancer cell lines.
The concentration is in μmol. As expected, some of the sub fractions affected the cell line to a much greater extent to others.

[2] = system: UM-UC-9 (bladder) and BT-20 (breast) cancer cell line; test: Bromouridine sequencing of nascent transcription; assay type: cell-based; conditions: 3.5 hours treatment
Protocol: A common method of monitoring RNA changes is by labeling new RNA with Bromouridine, then isolate the RNA to see where the new RNA was made. Bromouridine sequencing is well known in the art.
We used this method to monitor RNA in the UM-UC-9 (bladder) and BT-20 (breast) cancer cell line to detect the level of nascent transcription on the genome after treatment with SLs. Both cell lines were treated with the whole organic fraction at one time, or purified Ambrosin from the organic fraction at different doses for 3.5 hours. The RNA was then labeled with Bromouridine for half an hour and sequenced to detect the level of nascent transcription in the genome.

[3] = system: BT-474 breast cancer cell line; test: MTS IC50, BT-474 breast cancer cell line; assay type: cell-based; conditions: Homo sapiens, individual SLs
Protocol: as §1
(§2) The IC50 of the purified SLs, Parthenin, Ambrosin, Damsin, and Neoambrosin, were also tested for MDA-MB-231 cell line (FIG. 22), MDA-MB-468 (Basal Subtype Normal) cell line (FIG. 23), and BT-474 cell line (FIG. 24), an invasive ductal carcinoma cell line (luminal subtype B).

[4] = system: UM-UC-7 bladder cancer cell line; test: MTS IC50, UM-UC-7 bladder cancer cell line; assay type: cell-based; conditions: 1000 cells/well
Protocol: as §1
(§3) The MTS test was then conducted to evaluate the different IC50 of multiple cell lines. Purification was performed to separate the organic extract of SLs into different components. Micromolar doses, instead of micrograms, as determined by the molecular weight of the different SLs, Parthenin, Ambrosin, Damsin, and Neoambrosin, were tested in vitro. Ideally, for drug treatments, micromolar weights between 10-15 are preferred.

[5] = system: MDA-MB-231 breast cancer cell line; test: MTS IC50, MDA-MB-231 breast cancer cell line; assay type: cell-based; conditions: for IC50: Homo sapiens, MDA-MB-231, individual SLs, MTS
Protocol: as §1
Several TNBC cell lines were tested in vitro and were treated with serial concentrations of the extracted SLs from Ambrosia maritima to determine IC50.
as §2
(§4) Similar tests were performed with the organic extract from Ambrosia hispida.

[6] = system: UM-UC-17 bladder cancer cell line; test: MTS IC50, UM-UC-17 bladder cancer cell line; assay type: cell-based; conditions: 1000 cells/well
Protocol: as §1, §3

[7] = system: UM-UC-9 bladder cancer cell line; test: MTS IC50, UM-UC-9 bladder cancer cell line; assay type: cell-based; conditions: 1000 cells/well
Protocol: as §1, §3

[8] = system: BT-20 breast cancer cell line; test: MTS IC50, BT-20 breast cancer cell line; assay type: cell-based; conditions: Ambrosin purified from Ambrosia hispida
Protocol: as §1, §4

[9] = system: UM-UC-15 bladder cancer cell line; test: MTS IC50, UM-UC-15 bladder cancer cell line; assay type: cell-based; conditions: 1000 cells/well
Protocol: as §1, §3

[10] = system: MDA-MB-468 breast cancer cell line; test: MTS IC50, MDA-MB-468 breast cancer cell line; assay type: cell-based; conditions: Homo sapiens, individual SLs
Protocol: as §1, §2

[11] = system: MDA-MB-231 breast cancer cells; test: Orthotopic MDA-MB-231 breast cancer model; assay type: in vivo, mice; conditions: MDA-MB-231 triple negative cell line
Protocol: Additional in vivo experiments were conducted for three breast cancer cell lines that were orthotopically injected into mice. Orthotopic injection of breast cancer cells is a powerful model to study all aspects of cancer growth. One million cells of each MDA-MB-231, SUM-159 and MDA-MB-468 were injected into the mammary fat pad of mice to form tumors. Once tumors were established, the tumors were treated with the SL-containing organic extraction of Ambrosia maritima at a dose of 200 μM of total SLs/animal daily.
FIGS. 11A-B show the histopathology of the tumor area in the mice treated with the SLs extracted from Ambrosia maritima versus control animals for the SUM-159 and MDA-MB-231 cell lines.
Thus, these components can be purified individually from the SL organic fraction and then combined as a potential treatment.

Row | IC50 [1] | IC50 [3] | IC50 [4] | IC50 of purified Ambrosin compared with SL extract of Ambrosia hispida, MDA-MB-231 ([5]; Ambrosin purified from Ambrosia hispida) | IC50 [5] | IC50 [6] | IC50 ([7]; MTS) | IC50 ([7]; UM-UC-9, MTS) | IC50 of purified Ambrosin compared with SL extract of Ambrosia hispida, BT-20 [8] | IC50 [9] | IC50 [10] | Structure (SMILES) | nascent transcription of genes of apoptotic pathway, reactive oxygen species pathway [2] | nascent transcription of hallmark genes related to cancer progression and proliferation [2] | level of expression of HER2 and p65 in xenografted animals [11]
1 | 2.71 µM | 2.17 µM | 4.89 µM | greater IC50 | 1.02 µM | 1.35 µM | 6.25 µM | < 10 µM | greater IC50 | 0.991 µM | 0.882 µM | C=C1C(=O)O[C@@H]2[C@H]1CC[C@H](C)[C@@H]1C=CC(=O)[C@@]21C (single isomer, unassigned) [AMBROSIN, Ambrosin] | upregulated | transcribing them at lower level than the control | significant improves
2 | 1.16 µM | 2.8 µM | 1.09 µM |  | 1.6 µM | 2.86 µM | 4.73 µM |  |  | 1.06 µM | 0.935 µM | C=C1C(=O)O[C@@H]2[C@H]1CC[C@H](C)[C@@H]1CCC(=O)[C@@]21C (single isomer, unassigned) [DAMSIN, Damsin] |  |  | significant improves
3 | 264 µM | 36.1 µM | 120 µM |  | 22.5 µM | 31.8 µM |  | 142 µM |  | 146 µM | 9.08 µM | C=C1C(=O)O[C@@H]2[C@H]1CC[C@H](C)C1=CCC(=O)[C@]12C (single isomer, unassigned) [NEOAMBROSIN, Neoambrosin] |  |  | 

Row | Structure (SMILES) | IC50 [1] | IC50 [3] | IC50 [4] | IC50 of purified Ambrosin compared with SL extract of Ambrosia hispida, MDA-MB-231 ([5]; Ambrosin purified from Ambrosia hispida) | IC50 [5] | IC50 [6] | IC50 ([7]; MTS) | IC50 ([7]; UM-UC-9, MTS) | IC50 of purified Ambrosin compared with SL extract of Ambrosia hispida, BT-20 [8] | IC50 [9] | IC50 [10] | nascent transcription of genes of apoptotic pathway, reactive oxygen species pathway [2] | nascent transcription of hallmark genes related to cancer progression and proliferation [2] | level of expression of HER2 and p65 in xenografted animals [11]
4 | C=C1C(=O)O[C@@H]2[C@H]1CC[C@H](C)[C@]1(O)C=CC(=O)[C@@]21C (single isomer, unassigned) [PARTHENIN, Parthenin] | 4.88 µM | 8.57 µM | 6.49 µM |  | 4.74 µM | 6.32 µM |  | 14.2 µM |  | 4.9 µM | 1.23 µM |  |  | 
